Measurements published in the kinase profiling compilation of Christmann-Franck et al. (2016).

Tests used:
Assay in all cases: KINOMEscan competition binding
Settings in all cases: compound 10.0 µM
[1] = tested on: KIT (human), P10721 [V559D/T670I]
[2] = tested on: EGFR (human), P00533 [L861Q]
[3] = tested on: EGFR (human), P00533 [G719S]
[4] = tested on: EGFR (human), P00533 [P753S; 747-752 del]
[5] = tested on: PIK3CA (human), P42336 [Q546K]
[6] = tested on: EIF2AK4 KD2 (human), Q9P2K8 [S808G]
[7] = tested on: ABL1 (human), P00519 [E255K]
[8] = tested on: PIK3CA (human), P42336 [I800L]
[9] = tested on: PIK3CA (human), P42336 [E545A]
[10] = tested on: KIT (human), P10721 [D816V]
[11] = tested on: FLT3 (human), P36888 [K663Q]
[12] = tested on: PIK3CA (human), P42336 [C420R]
[13] = tested on: PIK3CA (human), P42336 [E545K]
[14] = tested on: ABL1 (human), P00519 [M351T]
[15] = tested on: KIT (human), P10721 [V559D]
[16] = tested on: EGFR (human), P00533 [746-750 del]
[17] = tested on: FLT3 (human), P36888 [N841I]
[18] = tested on: FLT3 (human), P36888 [ITD]
[19] = tested on: PIK3CA (human), P42336 [H1047Y]
Chain of PIK3CA (human), P42336 [H1047Y] (P42336 whole entry H1047Y, looked up): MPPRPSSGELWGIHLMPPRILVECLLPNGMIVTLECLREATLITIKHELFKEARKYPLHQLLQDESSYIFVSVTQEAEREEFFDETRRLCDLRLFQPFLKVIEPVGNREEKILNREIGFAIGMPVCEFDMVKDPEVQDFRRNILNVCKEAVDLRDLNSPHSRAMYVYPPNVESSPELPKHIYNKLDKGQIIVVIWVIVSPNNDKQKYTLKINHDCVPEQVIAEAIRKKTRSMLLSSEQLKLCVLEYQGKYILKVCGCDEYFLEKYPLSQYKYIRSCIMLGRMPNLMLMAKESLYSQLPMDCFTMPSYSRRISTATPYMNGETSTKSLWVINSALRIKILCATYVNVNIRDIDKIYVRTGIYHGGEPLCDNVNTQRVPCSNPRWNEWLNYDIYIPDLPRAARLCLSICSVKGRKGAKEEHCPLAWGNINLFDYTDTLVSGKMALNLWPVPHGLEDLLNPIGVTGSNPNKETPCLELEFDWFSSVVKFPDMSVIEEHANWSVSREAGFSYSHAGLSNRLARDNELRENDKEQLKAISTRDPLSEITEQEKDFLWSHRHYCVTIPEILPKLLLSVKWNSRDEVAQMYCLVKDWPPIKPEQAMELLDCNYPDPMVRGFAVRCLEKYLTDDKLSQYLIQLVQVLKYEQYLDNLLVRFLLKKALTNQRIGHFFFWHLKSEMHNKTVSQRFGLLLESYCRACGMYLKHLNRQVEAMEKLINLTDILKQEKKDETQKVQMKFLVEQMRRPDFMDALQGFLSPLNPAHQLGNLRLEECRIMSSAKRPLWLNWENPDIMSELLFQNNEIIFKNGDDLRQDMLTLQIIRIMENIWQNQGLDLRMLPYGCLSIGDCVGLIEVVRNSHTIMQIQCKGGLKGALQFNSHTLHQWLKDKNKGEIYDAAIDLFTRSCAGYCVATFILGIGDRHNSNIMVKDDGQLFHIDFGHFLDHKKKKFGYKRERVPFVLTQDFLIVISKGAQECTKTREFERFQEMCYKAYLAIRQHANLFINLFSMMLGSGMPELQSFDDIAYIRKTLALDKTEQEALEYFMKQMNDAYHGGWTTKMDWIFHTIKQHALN

Chain of PIK3CA (human), P42336 [E545A] (P42336 whole entry E545A, looked up): as the sequence (P42336 whole entry H1047Y, looked up) above, with E545A, Y1047H counted along it
Chain of EIF2AK4 KD2 (human), Q9P2K8 [S808G] (Q9P2K8 whole entry S808G, looked up): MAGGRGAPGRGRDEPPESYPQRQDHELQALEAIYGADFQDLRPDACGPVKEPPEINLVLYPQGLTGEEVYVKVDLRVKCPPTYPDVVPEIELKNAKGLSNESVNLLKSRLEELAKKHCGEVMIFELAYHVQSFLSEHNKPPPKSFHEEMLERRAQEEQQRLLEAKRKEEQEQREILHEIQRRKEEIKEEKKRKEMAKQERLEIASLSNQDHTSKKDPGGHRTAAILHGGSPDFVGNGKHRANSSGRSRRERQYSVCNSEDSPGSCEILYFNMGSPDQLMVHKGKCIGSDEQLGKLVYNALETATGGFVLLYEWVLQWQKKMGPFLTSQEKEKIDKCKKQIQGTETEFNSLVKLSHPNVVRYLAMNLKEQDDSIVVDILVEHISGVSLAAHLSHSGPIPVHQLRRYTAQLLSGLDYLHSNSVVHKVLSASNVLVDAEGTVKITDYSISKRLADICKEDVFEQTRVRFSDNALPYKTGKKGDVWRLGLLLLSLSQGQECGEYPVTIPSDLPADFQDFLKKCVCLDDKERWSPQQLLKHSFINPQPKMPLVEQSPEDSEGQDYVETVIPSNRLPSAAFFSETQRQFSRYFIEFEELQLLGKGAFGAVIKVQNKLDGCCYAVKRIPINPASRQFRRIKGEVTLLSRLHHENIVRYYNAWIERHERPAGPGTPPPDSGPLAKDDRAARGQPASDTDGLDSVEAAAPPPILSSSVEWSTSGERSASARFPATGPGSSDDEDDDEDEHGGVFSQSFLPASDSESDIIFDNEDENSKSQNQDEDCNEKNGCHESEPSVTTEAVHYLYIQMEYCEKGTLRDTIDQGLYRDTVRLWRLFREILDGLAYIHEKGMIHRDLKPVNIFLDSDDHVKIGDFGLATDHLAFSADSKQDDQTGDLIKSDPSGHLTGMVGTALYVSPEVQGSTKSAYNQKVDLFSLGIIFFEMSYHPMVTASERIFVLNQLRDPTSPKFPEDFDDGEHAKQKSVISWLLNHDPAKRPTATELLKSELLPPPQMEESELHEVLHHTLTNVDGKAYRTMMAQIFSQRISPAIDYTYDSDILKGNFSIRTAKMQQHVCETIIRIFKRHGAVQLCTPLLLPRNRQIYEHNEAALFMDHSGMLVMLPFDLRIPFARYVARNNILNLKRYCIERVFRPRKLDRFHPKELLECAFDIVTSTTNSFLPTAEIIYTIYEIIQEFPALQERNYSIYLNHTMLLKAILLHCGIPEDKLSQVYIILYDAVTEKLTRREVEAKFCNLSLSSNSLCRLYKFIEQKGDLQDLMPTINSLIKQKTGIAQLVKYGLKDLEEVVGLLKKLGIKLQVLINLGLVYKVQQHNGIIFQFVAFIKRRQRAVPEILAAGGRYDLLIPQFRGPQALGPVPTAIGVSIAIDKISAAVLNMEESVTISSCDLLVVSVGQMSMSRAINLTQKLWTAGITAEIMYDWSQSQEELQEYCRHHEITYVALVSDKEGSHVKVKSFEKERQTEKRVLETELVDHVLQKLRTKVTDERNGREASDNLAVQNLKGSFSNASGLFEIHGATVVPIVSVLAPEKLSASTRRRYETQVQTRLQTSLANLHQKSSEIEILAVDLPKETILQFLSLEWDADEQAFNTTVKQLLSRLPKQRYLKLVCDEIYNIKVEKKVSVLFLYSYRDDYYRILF
Chain of PIK3CA (human), P42336 [E545K] (P42336 whole entry E545K, looked up): as the sequence (P42336 whole entry H1047Y, looked up) above, with E545K, Y1047H counted along it
Chain of KIT (human), P10721 [V559D/T670I] (P10721 whole entry V559D/T670I, looked up): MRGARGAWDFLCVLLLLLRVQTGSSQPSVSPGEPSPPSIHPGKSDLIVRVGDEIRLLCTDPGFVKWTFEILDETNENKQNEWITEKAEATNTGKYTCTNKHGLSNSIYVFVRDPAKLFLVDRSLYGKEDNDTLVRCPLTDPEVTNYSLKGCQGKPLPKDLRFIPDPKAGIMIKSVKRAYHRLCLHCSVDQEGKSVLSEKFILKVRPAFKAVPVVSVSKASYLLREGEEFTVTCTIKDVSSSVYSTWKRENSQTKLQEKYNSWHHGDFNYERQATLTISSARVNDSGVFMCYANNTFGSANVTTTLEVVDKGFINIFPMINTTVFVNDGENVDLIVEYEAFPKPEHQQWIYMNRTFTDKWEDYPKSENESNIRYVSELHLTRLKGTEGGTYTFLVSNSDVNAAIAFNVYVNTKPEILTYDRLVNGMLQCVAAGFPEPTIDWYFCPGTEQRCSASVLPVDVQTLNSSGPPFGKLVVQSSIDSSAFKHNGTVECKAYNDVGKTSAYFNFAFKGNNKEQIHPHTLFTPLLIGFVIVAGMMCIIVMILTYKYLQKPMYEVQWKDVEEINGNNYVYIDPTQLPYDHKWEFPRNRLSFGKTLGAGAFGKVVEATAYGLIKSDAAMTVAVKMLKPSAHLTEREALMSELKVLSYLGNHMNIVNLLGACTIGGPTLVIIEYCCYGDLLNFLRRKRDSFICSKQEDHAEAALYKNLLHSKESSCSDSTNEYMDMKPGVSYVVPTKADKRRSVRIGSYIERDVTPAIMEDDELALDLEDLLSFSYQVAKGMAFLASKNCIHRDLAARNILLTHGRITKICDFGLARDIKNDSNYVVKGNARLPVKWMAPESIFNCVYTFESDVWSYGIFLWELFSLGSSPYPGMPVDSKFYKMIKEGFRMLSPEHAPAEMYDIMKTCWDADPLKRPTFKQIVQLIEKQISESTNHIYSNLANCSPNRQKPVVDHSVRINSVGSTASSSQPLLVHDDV
Chain of PIK3CA (human), P42336 [I800L] (P42336 whole entry I800L, looked up): as the sequence (P42336 whole entry H1047Y, looked up) above, with I800L, Y1047H counted along it
Chain of KIT (human), P10721 [D816V] (P10721 whole entry D816V, looked up): as the sequence (P10721 whole entry V559D/T670I, looked up) above, with D559V, I670T, D816V counted along it
Chain of KIT (human), P10721 [V559D] (P10721 whole entry V559D, looked up): as the sequence (P10721 whole entry V559D/T670I, looked up) above, with I670T counted along it
Chain of PIK3CA (human), P42336 [C420R] (P42336 whole entry C420R, looked up): as the sequence (P42336 whole entry H1047Y, looked up) above, with C420R, Y1047H counted along it
Chain of PIK3CA (human), P42336 [Q546K] (P42336 whole entry Q546K, looked up): as the sequence (P42336 whole entry H1047Y, looked up) above, with Q546K, Y1047H counted along it

N#Cc1cc(-c2ccnc(Nc3ccc(-n4cnc(-c5cccnc5)n4)cc3)n2)cc(N2CCOCC2)c1
kinase still bound, per cent of control [1]: 4.2% | kinase still bound, per cent of control [2]: 92% | kinase still bound, per cent of control [3]: 94% | kinase still bound, per cent of control [4]: 76% | kinase still bound, per cent of control [5]: 75% | kinase still bound, per cent of control [6]: 3.3% | kinase still bound, per cent of control [7]: 75% | kinase still bound, per cent of control [8]: 64% | kinase still bound, per cent of control [9]: 58% | kinase still bound, per cent of control [10]: 5.3% | kinase still bound, per cent of control [11]: 17% | kinase still bound, per cent of control [12]: 100% | kinase still bound, per cent of control [13]: 100% | kinase still bound, per cent of control [14]: 69% | kinase still bound, per cent of control [15]: 1% | kinase still bound, per cent of control [16]: 67% | kinase still bound, per cent of control [17]: 12% | kinase still bound, per cent of control [18]: 28% | kinase still bound, per cent of control [19]: 100%

CCN1CCN(C(=O)Cc2ccc(Nc3ncc(F)c(Nc4ccc(C(=O)Nc5ccccc5Cl)cc4)n3)cc2)CC1
kinase still bound, per cent of control [1]: 21% | kinase still bound, per cent of control [2]: 52% | kinase still bound, per cent of control [3]: 78% | kinase still bound, per cent of control [4]: 38% | kinase still bound, per cent of control [5]: 23% | kinase still bound, per cent of control [6]: 0.4% | kinase still bound, per cent of control [7]: 6.2% | kinase still bound, per cent of control [8]: 88% | kinase still bound, per cent of control [9]: 25% | kinase still bound, per cent of control [10]: 0.75% | kinase still bound, per cent of control [11]: 0.4% | kinase still bound, per cent of control [12]: 57% | kinase still bound, per cent of control [13]: 97% | kinase still bound, per cent of control [14]: 19% | kinase still bound, per cent of control [15]: 0.5% | kinase still bound, per cent of control [16]: 48% | kinase still bound, per cent of control [17]: 0% | kinase still bound, per cent of control [18]: 0.1% | kinase still bound, per cent of control [19]: 62%

NC(=O)Nc1cc(-c2cccc(F)c2)sc1C(=O)N[C@@H]1CCCNC1
kinase still bound, per cent of control [2]: 1.5% | kinase still bound, per cent of control [3]: 0% | kinase still bound, per cent of control [4]: 4.6% | kinase still bound, per cent of control [5]: 83% | kinase still bound, per cent of control [6]: 0.3% | kinase still bound, per cent of control [7]: 0% | kinase still bound, per cent of control [8]: 100% | kinase still bound, per cent of control [9]: 16% | kinase still bound, per cent of control [11]: 0.1% | kinase still bound, per cent of control [12]: 62% | kinase still bound, per cent of control [13]: 100% | kinase still bound, per cent of control [14]: 0% | kinase still bound, per cent of control [16]: 4.2% | kinase still bound, per cent of control [17]: 0% | kinase still bound, per cent of control [18]: 0% | kinase still bound, per cent of control [19]: 36%

CCN1CCN(Cc2ccc(NC(=O)c3ccc(C)c(/C=C/c4cnc5[nH]ccc5c4OC)c3)cc2C(F)(F)F)CC1
kinase still bound, per cent of control [1]: 0.05% | kinase still bound, per cent of control [2]: 0% | kinase still bound, per cent of control [3]: 0% | kinase still bound, per cent of control [4]: 0.55% | kinase still bound, per cent of control [6]: 0.6% | kinase still bound, per cent of control [7]: 1% | kinase still bound, per cent of control [8]: 100% | kinase still bound, per cent of control [9]: 92% | kinase still bound, per cent of control [10]: 0.65% | kinase still bound, per cent of control [11]: 0.05% | kinase still bound, per cent of control [12]: 100% | kinase still bound, per cent of control [13]: 100% | kinase still bound, per cent of control [14]: 2.2% | kinase still bound, per cent of control [15]: 0% | kinase still bound, per cent of control [16]: 3.8% | kinase still bound, per cent of control [17]: 0.25% | kinase still bound, per cent of control [18]: 0.35% | kinase still bound, per cent of control [19]: 90%

N#C/C(=C1/Nc2ccccc2S1)c1ccnc(NCCc2cccnc2)n1
kinase still bound, per cent of control [1]: 52% | kinase still bound, per cent of control [5]: 81% | kinase still bound, per cent of control [6]: 60% | kinase still bound, per cent of control [7]: 79% | kinase still bound, per cent of control [8]: 27% | kinase still bound, per cent of control [9]: 41% | kinase still bound, per cent of control [10]: 50% | kinase still bound, per cent of control [11]: 95% | kinase still bound, per cent of control [12]: 86% | kinase still bound, per cent of control [13]: 96% | kinase still bound, per cent of control [14]: 88% | kinase still bound, per cent of control [15]: 26% | kinase still bound, per cent of control [17]: 48% | kinase still bound, per cent of control [18]: 92% | kinase still bound, per cent of control [19]: 66%

CCc1nc(-c2cccc(C)c2)c(-c2ccnc(NC(=O)c3ccccc3)c2)s1
kinase still bound, per cent of control [5]: 32% | kinase still bound, per cent of control [6]: 100% | kinase still bound, per cent of control [7]: 24% | kinase still bound, per cent of control [8]: 99% | kinase still bound, per cent of control [9]: 54% | kinase still bound, per cent of control [10]: 5.6% | kinase still bound, per cent of control [11]: 17% | kinase still bound, per cent of control [12]: 72% | kinase still bound, per cent of control [13]: 98% | kinase still bound, per cent of control [15]: 32% | kinase still bound, per cent of control [17]: 28% | kinase still bound, per cent of control [18]: 50% | kinase still bound, per cent of control [19]: 50%

COc1cc2ncn(-c3cc(OCc4ccccc4C(F)(F)F)c(C(N)=O)s3)c2cc1OC
kinase still bound, per cent of control [1]: 21% | kinase still bound, per cent of control [2]: 100% | kinase still bound, per cent of control [3]: 98% | kinase still bound, per cent of control [4]: 63% | kinase still bound, per cent of control [5]: 96% | kinase still bound, per cent of control [6]: 16% | kinase still bound, per cent of control [7]: 60% | kinase still bound, per cent of control [8]: 24% | kinase still bound, per cent of control [9]: 54% | kinase still bound, per cent of control [10]: 1.4% | kinase still bound, per cent of control [12]: 100% | kinase still bound, per cent of control [13]: 90% | kinase still bound, per cent of control [14]: 81% | kinase still bound, per cent of control [15]: 21% | kinase still bound, per cent of control [18]: 26% | kinase still bound, per cent of control [19]: 36%

C[C@@H](Oc1cc(-c2cnn(C3CCNCC3)c2)cnc1N)c1c(Cl)ccc(F)c1Cl
kinase still bound, per cent of control [1]: 7% | kinase still bound, per cent of control [5]: 17% | kinase still bound, per cent of control [6]: 100% | kinase still bound, per cent of control [9]: 21% | kinase still bound, per cent of control [10]: 32% | kinase still bound, per cent of control [11]: 5.6% | kinase still bound, per cent of control [12]: 71% | kinase still bound, per cent of control [13]: 100% | kinase still bound, per cent of control [15]: 27% | kinase still bound, per cent of control [17]: 2% | kinase still bound, per cent of control [19]: 18%

N#CCNC(=O)c1ccc(-c2ccnc(Nc3ccc(N4CCOCC4)cc3)n2)cc1
kinase still bound, per cent of control [1]: 45% | kinase still bound, per cent of control [2]: 66% | kinase still bound, per cent of control [3]: 79% | kinase still bound, per cent of control [4]: 100% | kinase still bound, per cent of control [5]: 100% | kinase still bound, per cent of control [6]: 1.2% | kinase still bound, per cent of control [7]: 29% | kinase still bound, per cent of control [10]: 16% | kinase still bound, per cent of control [12]: 100% | kinase still bound, per cent of control [13]: 100% | kinase still bound, per cent of control [14]: 66% | kinase still bound, per cent of control [15]: 16% | kinase still bound, per cent of control [16]: 100% | kinase still bound, per cent of control [17]: 2.2% | kinase still bound, per cent of control [18]: 22% | kinase still bound, per cent of control [19]: 100%

COCC(=O)NC/C=C/c1ccc2ncnc(Nc3ccc(Oc4ccc(C)nc4)c(C)c3)c2c1
kinase still bound, per cent of control [1]: 100% | kinase still bound, per cent of control [5]: 38% | kinase still bound, per cent of control [6]: 81% | kinase still bound, per cent of control [8]: 100% | kinase still bound, per cent of control [9]: 33% | kinase still bound, per cent of control [10]: 89% | kinase still bound, per cent of control [11]: 79% | kinase still bound, per cent of control [13]: 100% | kinase still bound, per cent of control [15]: 17% | kinase still bound, per cent of control [17]: 79% | kinase still bound, per cent of control [18]: 87% | kinase still bound, per cent of control [19]: 47%

CC(=O)c1c(C)c2cnc(Nc3ccc(N4CCNCC4)cn3)nc2n(C2CCCC2)c1=O
kinase still bound, per cent of control [1]: 61% | kinase still bound, per cent of control [2]: 82% | kinase still bound, per cent of control [4]: 87% | kinase still bound, per cent of control [5]: 10% | kinase still bound, per cent of control [6]: 0.4% | kinase still bound, per cent of control [7]: 44% | kinase still bound, per cent of control [8]: 6% | kinase still bound, per cent of control [9]: 10% | kinase still bound, per cent of control [10]: 74% | kinase still bound, per cent of control [11]: 30% | kinase still bound, per cent of control [12]: 41% | kinase still bound, per cent of control [13]: 75% | kinase still bound, per cent of control [15]: 45% | kinase still bound, per cent of control [17]: 2.1% | kinase still bound, per cent of control [18]: 20% | kinase still bound, per cent of control [19]: 17%

CNC(=O)c1cc(Oc2ccc(NC(=O)Nc3ccc(Cl)c(C(F)(F)F)c3)cc2)ccn1
kinase still bound, per cent of control [1]: 0.1% | kinase still bound, per cent of control [10]: 3.6% | kinase still bound, per cent of control [11]: 0.5% | kinase still bound, per cent of control [15]: 0.05% | kinase still bound, per cent of control [17]: 0.25% | kinase still bound, per cent of control [18]: 2.8%
